Where two headings read alike, the source gives them in different places.
Columns and labels:
Format in all cases: in vitro ADME
CYP1A2 = target: T1, CYP1A2 (Homo sapiens, UniProt P05177); experiment: CYP450 enzyme inhibition in human liver microsomes, CYP1A2; conditions: substrate Phenacetin, read-out: Inhibitory activity IC50 (μM) CYP1A2
T1 construct: 0.05 mg/mL liver microsome (BioIVT, IHG) phosphate buffer solution; tissue BioIVT IHG; host or cells: human liver microsomes
T1 sequence (P05177 1-516): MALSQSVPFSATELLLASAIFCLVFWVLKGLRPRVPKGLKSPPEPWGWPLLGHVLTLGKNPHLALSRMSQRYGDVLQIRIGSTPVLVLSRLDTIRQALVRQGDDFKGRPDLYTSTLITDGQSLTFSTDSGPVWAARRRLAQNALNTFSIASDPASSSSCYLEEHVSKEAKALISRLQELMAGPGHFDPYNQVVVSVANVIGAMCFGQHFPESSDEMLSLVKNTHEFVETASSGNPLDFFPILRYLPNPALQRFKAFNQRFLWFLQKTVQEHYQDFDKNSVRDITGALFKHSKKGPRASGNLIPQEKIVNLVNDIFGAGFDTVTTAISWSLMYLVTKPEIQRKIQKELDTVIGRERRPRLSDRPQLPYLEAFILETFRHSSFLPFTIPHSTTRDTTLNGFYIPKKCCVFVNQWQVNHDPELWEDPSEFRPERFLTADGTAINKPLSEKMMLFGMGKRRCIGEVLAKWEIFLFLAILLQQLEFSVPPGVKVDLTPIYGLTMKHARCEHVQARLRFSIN
Method: (§1) This experiment incubates the compound, liver microsomes and different CYP subtype enzyme substrates in a 37° C. water bath to measure the amount of substrate metabolites produced and evaluate the inhibitory effect of the compound of the present disclosure on CYP enzymes based on the IC50 value.
(§2) i. The compound was diluted to 0, 0.02 mM, 0.06 mM, 0.2 mM, 0.6 mM, 2 mM and 6 mM concentrations with DMSO (Aladdin, catalog number: D103273-500 ml).
(§3) ii. The enzyme substrate solutions of each CYP subtype were prepared by phosphate buffer (sigma: V900050-500G).
(§4) iii. Sample incubation. […] After centrifugation at 4000 rpm and 4° C. for 40 min, the supernatant was diluted with pure water according to the response of the substrate metabolites and then detected by UPLC-MS/MS (Sciex, Q-Trap 4500). […]
(§5) The inhibitory effect of the compound on each P450 enzyme in human liver microsomes was calculated as the percentage of reduced metabolite formation compared with the non-inhibitory control (i.e., blank DMSO). The IC50 value for each P450 enzyme in human liver microsomes was calculated using the logarithm of the remaining activity and the inhibitor concentration using Graphpad Prism software. […]

CYP3A4 = target: T2, CYP3A4 (Homo sapiens, UniProt P08684); experiment: CYP450 enzyme inhibition in human liver microsomes, CYP3A4
T2 construct: 0.05 mg/mL liver microsome (BioIVT, IHG) phosphate buffer solution; tissue BioIVT IHG; host or cells: human liver microsomes
T2 sequence (P08684 whole entry): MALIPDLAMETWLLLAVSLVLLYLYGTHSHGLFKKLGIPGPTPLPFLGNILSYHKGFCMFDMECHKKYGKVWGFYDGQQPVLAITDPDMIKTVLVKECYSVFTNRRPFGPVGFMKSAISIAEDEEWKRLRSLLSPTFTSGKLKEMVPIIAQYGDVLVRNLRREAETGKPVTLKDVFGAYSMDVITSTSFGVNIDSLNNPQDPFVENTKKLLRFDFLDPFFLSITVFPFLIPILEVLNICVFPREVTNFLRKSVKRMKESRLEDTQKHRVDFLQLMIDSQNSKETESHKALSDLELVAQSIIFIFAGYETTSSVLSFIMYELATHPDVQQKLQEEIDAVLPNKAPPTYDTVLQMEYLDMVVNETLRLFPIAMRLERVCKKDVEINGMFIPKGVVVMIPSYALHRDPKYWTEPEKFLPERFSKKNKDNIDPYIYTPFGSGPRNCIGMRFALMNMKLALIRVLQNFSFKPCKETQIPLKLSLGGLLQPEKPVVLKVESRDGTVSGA
Method: as §1, §2, §3, §4, §5

[1] = Liver microsome metabolic stability, rat; conditions: rat liver microsomes, 45 min incubation
Method: Purpose: This experiment investigates the metabolic stability of the compound in liver microsomes of different species such as humans, mice and rats, and the residual content of the test compound after incubation with liver microsomes of different species such as humans, mice and rats.
Preparation of 500 μM solution of target compound and positive control: 5 μL of each 10 mM stock solution was taken, added to 95 μL acetonitrile, and mixed for 30 s;
Preparation of 6 mM NADPH solution: 100 mM Stock aliquot liquid was diluted with Mg-Mg —K-Buffer.
2.1.1 Liver microsome solution: 18.75 μL of 20 mg/mL HLM, RLM, MLM, DLM, MOLM (final concentration: 0.5 mg/ml) were taken and placed them in each well of a 96-well plate;
2.1.2 1.5 μL of 500 μM solution of each compound was added respectively;
2.1.3 479.8 μL of phosphate buffer was taken, then added to each compound well, and mixed at 1000 rpm in an oscillating mixer for 10 s.
30 μL of the above samples were taken and aliquoted to a new 96-well plates respectively (including NADPH group, n=2, and no NADPH group at 0 and 45 min, n=1), marked as 0, 5, 15, 30 and 45 min; […]
The slope was calculated based on the LN value of the compound concentration percentage and time as the coordinate axis, and the residual content of the compound after incubation with liver microsomes was calculated based on the slope and formula. […]

IC50 (CYP1A2): > 30 µM
IC50 (CYP3A4; substrate Midazolam, read-out: Inhibitory activity IC50 (μM) CYP3A4-M): 28.7 µM
IC50 (CYP3A4; substrate Testosterone, read-out: Inhibitory activity IC50 (μM) CYP3A4-T): > 30 µM
LMS (r)(% rem, 45 min) [1]: 82.45 % rem
Structure (SMILES): CC(=O)N1CCOC[C@H]1CNc1nc2nc(-c3c(C)cc(C(F)(F)F)cc3O)ccc2o1 [Compound 111]

— patent publication US20260234150A1, “COMPOUND FOR INHIBITING NLRP3, PREPARATION METHOD, AND USE” (DOVETREE MEDICINES UNUS, INC., priority 2023, published 2026)
